Holding throughout (test): NCI anticancer screen, dose series, 48 h
The test system of assay [1] is A498 renal.
For assay [2], the system named is HOP-62 NSCLC.
Assay [3] relates to HOP-92 NSCLC.
In assay [4] the test system is IGROV1 ovarian.
The test system of assay [5] is LOX IMVI melanoma.
Assay [6] concerns MDA-N.
Assay [7] relates to OVCAR-5 ovarian.
For assay [8], the system named is SK-MEL-2 melanoma.
For assay [9], the system named is SK-OV-3 ovarian.
Assay [10] concerns UACC-62 melanoma.

In PubChem BioAssay (NCI) one finds TGI data, which are given here for 8 molecules.

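Interpolation was linear, between the two tested concentrations surrounding the appropriate level; five concentrations were tested over 48 hours in 96-well plates. TGI: total growth inhibition.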

`O=C(NC(Cc1c[nH]c2ccccc12)C(=O)O)/C(=C/c1ccccc1)NC(=O)c1ccccc1` (stereo not given): the TGI in [1] is above 100 µM; in [2] it was above 100 µM; in [3], 94.8 µM; in [4], above 100 µM; in assay [5], above 100 µM; in assay [6], above 100 µM. The TGI in assay [7], in assay [8], in assay [9] and in assay [10] was above 100 µM throughout.
Consider `Clc1cccc(Cl)c1C1ON=C(c2ccccc2)N1C12CC3CC(CC(C3)C1)C2` (stereo not given), for which the TGI in [1] is above 100 µM; in assay [2], above 100 µM; in [3], 75.3 µM; in assay [4] it was above 100 µM; in assay [5], 63.7 µM; in assay [6], above 100 µM. Besides, the TGI in [7] is above 100 µM; in assay [8], 71 µM; in assay [9], above 100 µM; in [10] it was above 100 µM.
Turning to `CCCCCCCCCCCOCCC1C(C(C)OCCN2CCCC2)OC2OC(C)(C)OC21` (stereo not given), the TGI in assay [1] was 28.5 µM; in [2], 4.38 µM; in assay [3], 4.75 µM; in assay [4], 6.59 µM; in assay [5], 2.93 µM; in assay [6], 3.52 µM. Further, the TGI stood at 8.94 µM in [7], 3.51 µM in assay [8], 8.96 µM in [9] and 3.28 µM in assay [10].
Regarding `Cc1nc(-c2ccc(Cl)cc2)cn2c1nc1ccccc12`, the TGI in assay [1], in assay [2], in [3], in [4], in assay [5] and in [6] was above 100 µM throughout. In addition, the TGI in assay [7], in assay [8], in assay [9] and in assay [10] was above 100 µM throughout.
In the case of `Cn1cnc([N+](=O)[O-])c1Sc1nncc2[nH]cnc12`, the TGI in assay [1], in assay [2], in assay [3], in assay [4], in assay [5] and in assay [6] was above 100 µM throughout. Moreover, the TGI in [7], in assay [8], in assay [9] and in [10] was above 100 µM in each case.
Consider `NCCCN1CCN(CCCNc2ccc3ncn4c5ccccc5c(=O)c2c34)CC1`, for which the TGI in [1] was 5.63 µM; in assay [2], above 25 µM; in assay [3], above 25 µM; in assay [4], 8.17 µM; in assay [5], 4.07 µM; in assay [6], 4.88 µM. In addition, the TGI in assay [7] is 19.3 µM; in assay [8], 13.3 µM; in [9], above 25 µM; in [10], 6.18 µM.
Turning to `CCCS(=O)OC1C(C2COC(C)(C)O2)OC2OC(C)(C)OC21` (stereo not given), the TGI was 97 µM in assay [1]; 32.5 µM in assay [2]; 22.8 µM in assay [3]; 33.2 µM in assay [4]; 21.4 µM in [5]; above 70.6 µM in assay [6]. Further, the TGI in assay [7] was 26.1 µM; in assay [8], 37.4 µM; in [9] it was above 86.8 µM; in [10], 35.2 µM.
Turning to `COc1ccc(C2=C(N)c3ccccc3C2=O)cc1`, the TGI in [1], in [2], in [3], in [4], in assay [5] and in assay [6] was above 100 µM each time. For the same molecule, the TGI in assay [7], in [8], in assay [9] and in assay [10] was above 100 µM throughout.
